From patent publication US20200046620A1, “Solid Compositions for Teeth Whitening and Anti-Microbial Effects” (Colgate-Palmolive Company, priority 2018, published 2020)

Test: pH-dependent bleaching of Lissamine green B dye by NaDCC
Type: physicochemical
Conditions: 10 mg NaDCC in 20 mL
Procedure: Two different solutions, Solution A and Solution B, were prepared. Solution A contained 2% SAPP, 0.1% Lissamine green B dye, and 97.9% water. Solution B contained 2% tetrasodium pyrophosphate (TSPP), 0.1% Lissamine green B dye, and 97.9% water. Next, solutions with various pHs were obtained by mixing the two different solutions A and B, in different volume ratios (i.e., 1:0, 1:5, 1:1, 5:1, and 0:1). 20 mL of the resulting solutions were added to 10 mg NaDCC, and the time required to bleach away all of the Lissamine green B color was recorded.

With O=c1nc([O-])n(Cl)c(=O)n1Cl.[Na+] [NaDCC, sodium dichloroisocyanurate] as the compound, how does the Time to bleach (Mix Solution 1, VA:VB 1:0, pH 4.6) read?
The Time to bleach was “Instantaneous”.

And the Time to bleach (Mix Solution 2, VA:VB 1:5, pH 5.8)?
The Time to bleach was 0.25 min.

And the Time to bleach (Mix Solution 3, VA:VB 1:1, pH 7.4)?
The Time to bleach was 8 min.

What about the Time to bleach (Mix Solution 4, VA:VB 5:1, pH 8.8) of the same compound?
The Time to bleach was 35 min.

What about the Time to bleach (Mix Solution 5, VA:VB 0:1, pH 10.5) of the same compound?
The Time to bleach was 80 min.
